Test results published in patent US20090134028A1, “Method of Estimating Effect of Test Chemical on Living Organisms” (Chemicals Evaluation and Research Institute, priority 2005, published 2009).
Read-outs that look alike come from different tables or passages of the source.

Tests used:
[1] = cited from earlier work
[2] = Prediction of liver cell hypertrophy using SVM from post-translational modification data; parameters: species or system rat
[3] = test system: liver cell
[4] = SVM prediction of liver cell hypertrophy, training set, top-ranked 20 sets of post-translational modification data
[5] = known carcinogenicity of chemical, Tables 1 to 3
[6] = known carcinogenicity of chemical, Tables 8 to 11

**Q.** Which Carcinogenicity ([1]; in vivo) does the source give for `CCSCCC(N)C(=O)O` (racemic) [D,L-ethionin] here?
**A.** Its Carcinogenicity is “+”.

**Q.** Which Prediction result [2] does the source give for `CC(C)[C@@H]1CC[C@@H](C)C[C@H]1O` (racemic) [DL-menthol] here?
**A.** Its Prediction result is “+1 CORRECT”.

**Q.** What about the “Finding of hepatocyte hypertrpy” value ([3]; rat, in vivo) of the same compound?
**A.** Its value is “+”.

**Q.** What about the “pathology of liver cell hypertrophy in the liver” value (shortened to “pathology”) ([3]; rat, in vivo) of the same compound?
**A.** Its value is “pathology of liver cell hypertrophy was seen”.

**Q.** And the Carcinogenicity ([1]; in vivo)?
**A.** Its Carcinogenicity is “−”.

**Q.** What does the source list for `Clc1ccc(Cl)cc1` [1,4-Dichlorobenzene]?
**A.** Prediction result [2]: +1 CORRECT; Finding of hepatocyte hypertrpy ([3]; rat, in vivo): +; pathology of liver cell hypertrophy in the liver ([3]; rat, in vivo): pathology of liver cell hypertrophy was seen; Carcinogenicity ([1]; in vivo): +

**Q.** Which Prediction result [2] does the source give for `C1COCCO1` [1,4-Dioxane] here?
**A.** Its Prediction result is −1 CORRECT.

**Q.** What about the “Finding of hepatocyte hypertrpy” value ([3]; rat, in vivo) of the same compound?
**A.** Its value is “−”.

**Q.** What about the “pathology” value ([3]; rat, in vivo) of the same compound?
**A.** The value was “no pathology of liver cell hypertrophy was seen”.

**Q.** With `CC(O)CCl` (stereo not shown) [1-Chloro-2-propanol] as the compound, how does the Carcinogenicity ([1]; in vivo) read?
**A.** The Carcinogenicity was “−”.

**Q.** Which Carcinogenicity ([1]; in vivo) does the source give for `O=[N+]([O-])c1cccc2ccccc12` [1-Nitronaphthalene] here?
**A.** The Carcinogenicity was “−”.

**Q.** For `Cc1ccc(N)cc1N` [2,4-Diaminotoluene], which Prediction result [2] is on record?
**A.** The Prediction result was −1 CORRECT.

**Q.** And the “Finding of hepatocyte hypertrpy” value ([3]; rat, in vivo)?
**A.** The value was “−”.

**Q.** And the “pathology” value ([3]; rat, in vivo)?
**A.** The value was “no pathology of liver cell hypertrophy was seen”.

**Q.** What about the Carcinogenicity ([1]; in vivo) of the same compound?
**A.** The Carcinogenicity was “+”.

**Q.** Which Carcinogenicity ([1]; in vivo) does the source give for `Cc1cc(N)ccc1N.O=S(=O)(O)O` [2,5-Toluenediamine sulfate] here?
**A.** Its Carcinogenicity is “−”.

**Q.** For `Cc1c(N)cccc1N` [2,6-Diaminotoluene], which Prediction result [2, 4] is on record?
**A.** Its Prediction result is −1 CORRECT.

**Q.** What about the “Finding of hepatocyte hypertrpy” value ([3]; rat, in vivo) of the same compound?
**A.** The value was “−”.

**Q.** What about the “pathology” value ([3]; rat, in vivo) of the same compound?
**A.** Its value is “no pathology of liver cell hypertrophy was seen”.

**Q.** For `Cl.ClCc1ccccn1` [2-(Chloromethyl)pyridine hydrochloride], which Prediction result [2] is on record?
**A.** Its Prediction result is −1 CORRECT.

**Q.** What about the “Finding of hepatocyte hypertrpy” value ([3]; rat, in vivo) of the same compound?
**A.** The value was “−”.

**Q.** And the “pathology” value ([3]; rat, in vivo)?
**A.** The value was “no pathology of liver cell hypertrophy was seen”.

**Q.** And the Carcinogenicity [1, 5]?
**A.** Its Carcinogenicity is “−”.

**Q.** And the Carcinogenicity [1, 6]?
**A.** The Carcinogenicity was “−”.

**Q.** With `Cn1c(N)nc2ncc(-c3ccccc3)cc21` [2-Amino-1-methyl-6-phenylimidazo[4,5-b]-pyridine] as the compound, how does the Carcinogenicity ([1]; in vivo) read?
**A.** The Carcinogenicity was “+”.

**Q.** With `Cc1cnc2ccc3c(nc(N)n3C)c2n1` [2-Amino-3,8-dimethylimidazo[4,5-f]-quinoxaline] as the compound, how does the Carcinogenicity ([1]; in vivo) read?
**A.** Its Carcinogenicity is “+”.

**Q.** With `Nc1ccc(N)c(Cl)c1.O=S(=O)(O)O` [2-Chloro-p-phenylenediamine sulfate] as the compound, how does the Carcinogenicity ([1]; in vivo) read?
**A.** The Carcinogenicity was “−”.

**Q.** What does the source list for `CC(C)[N+](=O)[O-]` [2-Nitropropane]?
**A.** Prediction result [2]: −1 CORRECT; Finding of hepatocyte hypertrpy ([3]; rat, in vivo): −; pathology of liver cell hypertrophy in the liver ([3]; rat, in vivo): no pathology of liver cell hypertrophy was seen

**Q.** Which Carcinogenicity ([1]; in vivo) does the source give for `Cc1ccc(N)cc1Cl` [3-Chloro-p-toluidine] here?
**A.** Its Carcinogenicity is “−”.

**Q.** With `Cc1ccc2cc3c(ccc4ccccc43)c3c2c1CC3` [3-Methylcholantrene] as the compound, how does the Carcinogenicity ([1]; in vivo) read?
**A.** The Carcinogenicity was “+”.

**Q.** Which Carcinogenicity ([1]; in vivo) does the source give for `CC(=O)Nc1ccc(C(=O)CCl)cc1` [4-(Chloroacetyl)acetanilide] here?
**A.** Its Carcinogenicity is “−”.

**Q.** Which Carcinogenicity ([1]; in vivo) does the source give for `CN(C)c1ccc(N=Nc2ccccc2)cc1` [4-Dimethylaminoaxobenzene] here?
**A.** Its Carcinogenicity is “+”.

**Q.** For `Nc1ccc([N+](=O)[O-])cc1N` [4-Nitro-o-phenylenediamine], which Prediction result [2] is on record?
**A.** Its Prediction result is −1 CORRECT.

**Q.** And the “Finding of hepatocyte hypertrpy” value ([3]; rat, in vivo)?
**A.** Its value is “−”.

**Q.** And the “pathology” value ([3]; rat, in vivo)?
**A.** The value was “no pathology of liver cell hypertrophy was seen”.

**Q.** What about the Carcinogenicity ([1]; in vivo) of the same compound?
**A.** The Carcinogenicity was “−”.

**Q.** Which Carcinogenicity ([1]; in vivo) does the source give for `Nc1cc([N+](=O)[O-])ccc1C(=O)O` [4-Nitroanthranylic acid] here?
**A.** Its Carcinogenicity is “−”.

**Q.** For `Cc1c2ccccc2c(C)c2c1ccc1ccccc12` [7,12-Dimethylbenzanthracene], which Carcinogenicity ([1]; in vivo) is on record?
**A.** Its Carcinogenicity is “+”.

**Q.** For `Oc1cccc2cccnc12` [8-Hydrxyquinoline], which Prediction result [2] is on record?
**A.** The Prediction result was −1 CORRECT.

**Q.** And the “Finding of hepatocyte hypertrpy” value ([3]; rat, in vivo)?
**A.** Its value is “−”.

**Q.** What about the “pathology” value ([3]; rat, in vivo) of the same compound?
**A.** Its value is “no pathology of liver cell hypertrophy was seen”.

**Q.** What about the Carcinogenicity ([1]; in vivo) of the same compound?
**A.** Its Carcinogenicity is “−”.

**Q.** With `CC(N)=O` [Acetamide] as the compound, how does the Carcinogenicity ([1]; in vivo) read?
**A.** The Carcinogenicity was “+”.

**Q.** What does the source list for `ClC1=C(Cl)C2(Cl)C3C4C=CC(C4)C3C1(Cl)C2(Cl)Cl` (stereo not shown) [Aldrin]?
**A.** Prediction result [2]: −1 CORRECT; Finding of hepatocyte hypertrpy ([3]; rat, in vivo): −; pathology of liver cell hypertrophy in the liver ([3]; rat, in vivo): no pathology of liver cell hypertrophy was seen; Carcinogenicity ([1]; in vivo): +

**Q.** With `CC(=O)Oc1ccccc1C(=O)O` [Aspirin] as the compound, how does the Carcinogenicity [1, 5] read?
**A.** Its Carcinogenicity is “−”.

**Q.** What about the Carcinogenicity [1, 6] of the same compound?
**A.** Its Carcinogenicity is “−”.

**Q.** For `c1ccc2cc3c(ccc4ccccc43)cc2c1` [Benz(a)anthracene], which Carcinogenicity ([1]; in vivo) is on record?
**A.** The Carcinogenicity was “+”.

**Q.** With `O=C(c1ccccc1)C(O)c1ccccc1` (stereo not shown) [Benzoin] as the compound, how does the Carcinogenicity ([1]; in vivo) read?
**A.** The Carcinogenicity was “−”.

**Q.** What does the source list for `COc1ccc(O)c(C(C)(C)C)c1` [Butylated hydroxyanisole]?
**A.** Prediction result [2]: −1 CORRECT; Finding of hepatocyte hypertrpy ([3]; rat, in vivo): −; pathology of liver cell hypertrophy in the liver ([3]; rat, in vivo): no pathology of liver cell hypertrophy was seen; Carcinogenicity ([1]; in vivo): +

**Q.** Which Carcinogenicity [1, 5] does the source give for `O=C1CCCCCN1` [Caprolactam] here?
**A.** Its Carcinogenicity is “−”.

**Q.** What about the Carcinogenicity [1, 6] of the same compound?
**A.** Its Carcinogenicity is “−”.

**Q.** Which Carcinogenicity ([1]; in vivo) does the source give for `O=C(O)C1C(C(=O)O)C2(Cl)C(Cl)=C(Cl)C1(Cl)C2(Cl)Cl` (stereo not shown) [Chlorendic acid] here?
**A.** The Carcinogenicity was “+”.

**Q.** Which Carcinogenicity ([1]; in vivo) does the source give for `ClC(Cl)Cl` [Chloroform] here?
**A.** Its Carcinogenicity is “+”.

**Q.** What does the source list for `CCOC(=O)C(C)(C)Oc1ccc(Cl)cc1` [Clofibrate]?
**A.** Finding of hepatocyte hypertrpy ([3]; rat, in vivo): +; pathology of liver cell hypertrophy in the liver ([3]; rat, in vivo): pathology of liver cell hypertrophy was seen; Carcinogenicity [1, 5]: +; Carcinogenicity [1, 6]: +

**Q.** Which Prediction result [2] does the source give for `CCCCC(CC)COC(=O)CCCCC(=O)OCC(CC)CCCC` (stereo not shown) [Di(2-ethylhexyl)adipate] here?
**A.** Its Prediction result is 1.

**Q.** And the “Finding of hepatocyte hypertrpy” value ([3]; rat, in vivo)?
**A.** The value was “−”.

**Q.** What about the “pathology” value ([3]; rat, in vivo) of the same compound?
**A.** The value was “no pathology of liver cell hypertrophy was seen”.

**Q.** With `CC/C(=C(/CC)c1ccc(O)cc1)c1ccc(O)cc1` [Diethylstilbestrol] as the compound, how does the Carcinogenicity [1, 5] read?
**A.** The Carcinogenicity was “+”.

**Q.** And the Carcinogenicity [1, 6]?
**A.** The Carcinogenicity was “+”.

**Q.** What does the source list for `C#C[C@]1(O)CC[C@H]2[C@@H]3CCc4cc(O)ccc4[C@H]3CC[C@@]21C` [Ethinylestradiol]?
**A.** Finding of hepatocyte hypertrpy ([3]; rat, in vivo): −; pathology of liver cell hypertrophy in the liver ([3]; rat, in vivo): no pathology of liver cell hypertrophy was seen; Carcinogenicity [1, 5]: +; Carcinogenicity [1, 6]: +

**Q.** Which Carcinogenicity [1, 5] does the source give for `O=CCCCC=O` [Glutaraldehyde] here?
**A.** Its Carcinogenicity is “−”.

**Q.** And the Carcinogenicity [1, 6]?
**A.** Its Carcinogenicity is “−”.

**Q.** For `Clc1c(Cl)c(Cl)c(Cl)c(Cl)c1Cl` [Hexachlorobenzene], which “Finding of hepatocyte hypertrpy” value ([3]; rat, in vivo) is on record?
**A.** The value was “+”.

**Q.** Which results are given for `O=C1O[C@H]([C@@H](O)CO)C(O)=C1O` [L-ascorbic acid]?
**A.** Prediction result [2, 4]: −1 CORRECT; Finding of hepatocyte hypertrpy ([3]; rat, in vivo): −

**Q.** What does the source list for `COC(N)=O` [Methyl carbamate]?
**A.** Prediction result [2, 4]: −1 CORRECT; pathology of liver cell hypertrophy in the liver ([3]; after 28 days repeated administration): no pathology of liver cell hypertrophy was seen; Finding of hepatocyte hypertrpy ([3]; rat liver after 28 days repeated administration): −

**Q.** Which Carcinogenicity ([1]; in vivo) does the source give for `CCN(N=O)C(N)=O` [N-ethy-N-nitrosourea] here?
**A.** Its Carcinogenicity is “+”.

**Q.** Which Carcinogenicity ([1]; in vivo) does the source give for `CN(C)N=O` [N-nitrsodimethylamine] here?
**A.** Its Carcinogenicity is “+”.

**Q.** With `ClC(Cl)C(Cl)(Cl)Cl` [Pentachloroethane] as the compound, how does the Carcinogenicity ([1]; in vivo) read?
**A.** Its Carcinogenicity is “+”.

**Q.** For `CCC1(c2ccccc2)C(=O)NC(=O)NC1=O` [Phenobarbital], which “Finding of hepatocyte hypertrpy” value ([3]; rat, in vivo) is on record?
**A.** The value was “+”.

**Q.** What about the “pathology” value ([3]; rat, in vivo) of the same compound?
**A.** The value was “pathology of liver cell hypertrophy was seen”.

**Q.** What does the source list for `O=C1NC(=O)C(c2ccccc2)(c2ccccc2)N1` [Phenytoin sodium]?
**A.** Carcinogenicity [1, 5]: +; Carcinogenicity [1, 6]: +

**Q.** With `NC(=O)c1ccccc1C(N)=O` [Phthalamide] as the compound, how does the Carcinogenicity [1, 5] read?
**A.** The Carcinogenicity was “−”.

**Q.** And the Carcinogenicity [1, 6]?
**A.** The Carcinogenicity was “−”.

**Q.** For `ClC(Cl)=C(Cl)Cl` [Tetrachloroethylene], which Carcinogenicity ([1]; in vivo) is on record?
**A.** The Carcinogenicity was “+”.

**Q.** Which Carcinogenicity ([1]; in vivo) does the source give for `CC(=N)S` [Thioacetamide] here?
**A.** Its Carcinogenicity is “+”.

**Q.** With `O=C(O)C(Cl)(Cl)Cl` [Trichloroacetic acid] as the compound, how does the Carcinogenicity ([1]; in vivo) read?
**A.** Its Carcinogenicity is “+”.

**Q.** For `CCOC(N)=O` [Urethane], which Carcinogenicity [1, 5] is on record?
**A.** Its Carcinogenicity is “+”.

**Q.** And the Carcinogenicity [1, 6]?
**A.** Its Carcinogenicity is “+”.

**Q.** For `Cl.Cl.Nc1ccc(N)cc1` [p-Phenylenediamine dihydrochloride], which Carcinogenicity ([1]; in vivo) is on record?
**A.** The Carcinogenicity was “−”.
